We go through 13 molecules from patent publication US5872104A, “Combinations and methods for reducing antimicrobial resistance” (Oridigm Corporation, priority 1994, dated 1999).

For series [1], the system named is SAM synthetase. The conditions noted are these: cited from earlier work.
Series [2] relates to L1210 cells. The conditions noted are these: absence of polyamine depletion; cited from earlier work.
Series [3] concerns SAM pools in L1210 cells. The conditions noted are these: cited from earlier work.
Series [4] concerns L1210 cells. As to the kind of experiment: Growth inhibition in L1210 cell culture. It counts as cell-based.
Series [5] deals with adenosine deaminase. The settings on record: cited from earlier work.
The test system of series [6] is viruses. The conditions noted are these: cited from earlier work.
In series [7] the test system is murine L929 SAHH. The conditions noted are these: cited from earlier work.
Series [8] has as its system anaerobic bacteria. The settings on record: cited from earlier work.
Series [9] relates to rat leukemia (BNML). The settings on record: nitrous oxide plus cycloleucine; cited from earlier work.
In series [10] the test system is S. aureus 6538 (erythromycin susceptible). As to the kind of experiment: Erythromycin disk susceptibility with inhibitor pre-mixed in agar. It counts as cell-based. The settings on record: inhibitor pre-mixed with BHIA or TSA, with erythromycin (FIG. 2).
Series [11] concerns internal m^6 A of late SV40 mRNA. The settings on record: 0.5 mg/ml; cited from earlier work.
Series [12] relates to tumor-derived methionine adenosyltransferases. The conditions noted are these: cited from earlier work.
The subject of series [13] is S. aureus 27660 (erythromycin resistant). It counts as cell-based.
The conditions of series [14]: prolonged exposure to clinical concentrations; cited from earlier work.
Series [15] has as its system Streptococcus faecalis. The conditions noted are these: elevated pressures; cited from earlier work.
Series [16] deals with S. aureus. The conditions noted are these: elevated pressures; cited from earlier work.
For series [17], the system named is E. coli. The settings on record: elevated pressures; cited from earlier work.
For series [18], the system named is Salmonella typhimurium. The settings on record: elevated pressures; cited from earlier work.
For series [19], the system named is methionine synthetase. The conditions noted are these: cited from earlier work.
Series [20] concerns Brucella canis. The settings on record: 2×10 mg/kg; cited from earlier work.
The test system of series [21] is SAH hydrolase. The conditions noted are these: cited from earlier work.
Series [22] relates to rRNA processing. The conditions noted are these: cited from earlier work.
For series [23] the following is noted: iv., mice; cited from earlier work.
In series [24] the test system is mature rRNA in Novikoff hepatoma cells. The conditions noted are these: cited from earlier work.
Series [25] relates to tRNA methylases isolated from E. coli. The settings on record: cited from earlier work.
The test system of series [26] is adenosine deaminase. The conditions noted are these: cited from earlier work. This is another data set of the same source.
Series [27] relates to lysosomal ADA. The conditions noted are these: 0.02 mM; cited from earlier work.
For series [28], the system named is neoplastic cells. The settings on record: cited from earlier work.
For series [29] the following is noted: 1 mg/kg/day for 5 days; cited from earlier work.
For series [30], the system named is virion plaque formation. The settings on record: 10 μM; cited from earlier work.
Series [31] relates to Newcastle disease virion mRNA(guanine-7-)methyltransferase. The conditions noted are these: cited from earlier work.
Series [32] relates to tRNA methylation. The conditions noted are these: cited from earlier work.
In series [33] the test system is rRNA of S. cerevisiae. The conditions noted are these: cited from earlier work.
Series [34] relates to vaccinia virion mRNA(nucleoside-2'-)methyltransferase. The settings on record: cited from earlier work.
For series [35], the system named is DNA methylases from S. antibioticus. The conditions noted are these: non-sinefungin producer; cited from earlier work.
The subject of series [36] is RNA methyltransferases from Streptomyces (S. antibioticus, S. incarnatus, S. griseolus). The settings on record: cited from earlier work.
Series [37] has as its system cutaneous Leishmaniasis. The settings on record: mouse, in vivo; cited from earlier work.
The subject of series [38] is vaccinia virion mRNA(guanine-7)methyltransferase. The settings on record: cited from earlier work.
Series [39] deals with S. antibioticus. The settings on record: cited from earlier work.
Series [40] relates to RNA methyltransferase from Streptomyces antibioticus. The conditions noted are these: 50 μM; cited from earlier work.
The subject of series [41] is Cryptosporidium parvum. The conditions noted are these: in vivo; cited from earlier work.
Series [42] deals with cellular toxicity. The settings on record: cited from earlier work.
Series [43] concerns SAM-synthetase. The conditions noted are these: in vivo; cited from earlier work.
Series [44] deals with glutathione. The settings on record: ip.; 4.5 mmol/kg buthionine sulfoximine and […] diethyl maleate; cited from earlier work.
Series [45] has as its system cell culture. The settings on record: cited from earlier work.
In series [46] the test system is 28S and 18S rRNA formation. The settings on record: cited from earlier work.
Series [47] deals with rat SAM synthetase M-2 isozyme. The settings on record: cited from earlier work.
The test system of series [48] is rat SAM synthetase M-1 isozyme. The settings on record: cited from earlier work.

pIC50: −log10 of the molar value. “Also recorded” adds a separate entry of the source. Read-outs that look alike come from different tables or passages of the source.

For the molecule `CO/C=C\[C@H](N)C(=O)O` (stereo in doubt) [L-cis-AMB, L-2-amino-4-methoxy-cis-but-3-enoic acid], in [1], the SAM synthetase inhibition result is listed as “most potent methionine-analogue inhibitor of SAM synthetase at that time”. Also, the pIC50 in series [2] was 3.40. Moreover, in series [3] (1 mM, cultured L1210 cells), the “depletion of SAM” value was “rapid and near-total depletion of SAM by 4 hours”. Also, in series [3] (intact cells), the “SAM pools in intact cells” value was “rapidly depleting SAM pools in intact cells without affecting precursor incorporation into macromolecules”. In series [4], the “IC50, fold lower than that of cycloleucine” value is given as “about 10 fold”.
Regarding `CC(O)C1=C[C@@H](n2cnc3c(N)ncnc32)[C@H](O)[C@@H]1O` (some centres unmarked) [6'-C-methylneplanocin A], the “resistance to adenosine deaminase” value in series [5] is reported as “virtually resistant to adenosine deaminase”. Also, the “antiviral potency and selectivity vs neplanocin A” value in [6] was “surpassing neplanocin A both in antiviral potency and selectivity”. Also, the SAHH inhibition result in [7] is “good inhibitor of murine L929 SAHH”.
As for `CCC[C@@H]1C[C@@H](C(=O)N[C@@H]([C@H]2O[C@H](SC)[C@H](O)[C@@H](O)[C@H]2O)[C@H](C)Cl)N(C)C1` [clindamycin], the “activity against anaerobic bacteria” value in [8] is “potent against anaerobic bacteria”.
With `NC1(C(=O)O)CCCC1` [cycloleucine, 1-aminocyclopentane-1-carboxylic acid], the growth inhibiting effects entry in series [9] is recorded as “synergistic growth inhibiting effects”. The “increase in the size of the clear zone” value in series [10] is “increase in the size of the clear zone”; in series [13] (inhibitor pre-mixed with BHIA or TSA, with erythromycin (FIG. 3)), “increase in the size of the clear zone”. The SAM synthetase inhibition entry in series [1] was “inhibitor of SAM synthetase”. Further, the “decrease in internal m^6 A” value in series [11] was above 30%. Moreover, the pIC50 in series [2] is 2.30. In series [12], the inhibition entry is “effective inhibitors”. In addition, the “improved killing, increase over control” value in series [13] (0.1M in Brain Heart Infusion Agar (FIG. 3)) is 240%.
On to `[N-]=[N+]=O` [nitrous oxide], for which, in [9], the growth inhibiting effects entry is given as “synergistic growth inhibiting effects”. In series [14], the “adverse effects of prolonged exposure” value is “inhibits cellular proliferation and can lead to megaloblastic anemia, leukopenia, and thrombocytopenia”. Further, the inhibition of bacteria entry in series [15], in series [16], in [17] and in series [18] was “inhibited” each time. Besides, in series [19], the methionine synthetase result is recorded as “inhibiting methionine synthetase”.
`[H]/N=C(/N)N[C@H]1[C@H](O)[C@@H](O)[C@H](O[C@@H]2O[C@@H](C)[C@](O)(C=O)[C@H]2O[C@@H]2O[C@@H](CO)[C@H](O)[C@@H](O)[C@@H]2NC)[C@@H](N/C(N)=N\[H])[C@@H]1O` [streptomycin]: the surviving bacteria entry in series [20] is recorded as “only a minor reduction in the number of surviving bacteria”.
Take `Nc1ncnc2c1ccn2[C@@H]1O[C@H](CO)[C@@H](O)[C@H]1O` [Tubercidin, 7-deazaadenosine]: the SAH hydrolase inhibition result in [21] is “inhibits SAHH”. Besides, the rRNA processing entry in series [22] was “inhibits rRNA processing in addition to methylation of tRNA and protein and nucleic acid synthesis”. The LD50 in [23] is on record as 45 mg/kg. In addition, in [24], the “formation of mature rRNA” value is “inhibit the formation of mature 28S and 18”. In addition, the “inhibition of E. coli tRNA methylases” value in [25] is “inhibitory to tRNA methylases isolated from E. coli”.
On to `OC[C@H]1O[C@@H](n2cnc3c2NC=NC[C@H]3O)C[C@@H]1O` [2'-deoxyconformycin (pentostatin)], for which the ADA inhibition entry in series [26] is given as “potent inhibitors of ADA”. Moreover, the “inhibition of lysosomal ADA” value in series [27] was above 97%. The “safe and effective low weekly dose (protracted ADA inhibition in neoplastic cells)” value in [28] is 0.13 mg/kg. In addition, the tolerability in patients entry in [29] was “minimal distress”.
For the molecule `Nc1ncnc2c1ncn2[C@@H]1O[C@H](C[C@@H](N)CC[C@H](N)C(=O)O)[C@@H](O)[C@H]1O` [sinefungin], the “inhibition of virion plaque formation” value in [30] was “significant inhibition of virion plaque formation”. In addition, the inhibition result is listed as “potent inhibitors” in series [31]; “potent inhibitors” in series [34]; 100% in series [38] (100 μM); “potent inhibitors” in series [38]; 96% in [40]. Also, the “inhibition of methylation by base” value is “inhibits the methylation of adenine or guanine to a greater extent than cytosine in tRNA” in series [32]; “very strongly inhibits the methylation of G in position 2 and 7, and that of A in position 1 and 6” in [32] (listed as Sinefungin). In addition, the “rRNA methylation / stable 18S rRNA” value in series [33] was “inhibits methylation of rRNA in S.cerevisiae and leads to a decrease in stable 18S rRNA”. Besides, the “inhibition of DNA methylases” value in series [35] is “noticeably inhibited”. Besides, the “inhibition of RNA methyltransferases” value in [36] is “strongly inhibit RNA methyltransferases; also recorded: inhibited RNA methyltransferase”. Further, in series [37], the optimum dosage is reported as 4 mg/kg/day. In addition, the “optimum dosage: times lower than the LD50” value in series [37] is recorded as 50 times. Moreover, the sporulation entry in [39] was “inhibits sporulation”. The “synthesis of DNA methyltransferases” value in [39] is listed as “didn't inhibit the synthesis of DNA methyltransferases”. The “usable dosage in rat model” value in series [41] is 10 mg/kg/day. Also, the cellular toxicity result is “no cellular toxicity was detected” in series [42] (10 μM) and “significant cellular toxicity” in [42] (higher concentrations (above 10 μM)).
As to `CCCCS(=N)(=O)CCC(N)C(=O)O` (centres unmarked) [buthionine sulfoximine, CH3 (CH2)2 S (O)(=NH)CH2 CH2 CH(NH2)COOH], the “SAM-synthetase activity, % of untreated animals” value in series [43] is “about 40%”. Further, the depletion of glutathione entry in series [44] is “depleted liver and aortic glutathione”.
As for `Nc1ncnc2c1ncn2[C@@H]1C[C@H](O)[C@@H](O)[C@H]1O` (relative stereo) [(±)-5-Noraristeromycin], the SAH hydrolase inhibition entry in series [21] is “inhibitors of SAHH”. The times less cytotoxic in series [45] was 10 to 20 times.
As to `Nc1ncn([C@@H]2O[C@H](CO)[C@@H](O)[C@H]2O)c(=O)n1` [5-Azacitidine], the “formation of 28S and 18S RNA” value in series [46] is recorded as “severely inhibited”.
With `Nc1ncnc2c1ncn2[C@@H]1O[C@H]([C@H](CSCC[C@H](N)C(=O)O)OP(=O)(O)OP(=O)(O)NP(=O)(O)O)[C@@H](O)[C@H]1O` [5'(R)-(C)-[(L-homocysteine-S-yl)methyl]adenosine 5'-(β,γ-imidotriphosphate)], the inhibition result in [47] and in series [48] was “most effective inhibitor” in each case.
